Molecules are shown by their SMILES. Calls of active or inactive are those of the source. No cut-off for these calls is given here.

Assay [1] in a line: Displacement of [3H]-EMPA from human orexin 2 receptor expressed in CHO cells incubated for 2 hrs by whole cell radioligand binding assay. In kind it is cell-based. A general note: In a radioligand displacement assay an active substance lowers the binding of a labelled ligand.
For assay [2], the target named is T1, Orexin/Hypocretin receptor type 1 (Homo sapiens) (UniProt O43613).
T1 sequence (whole entry): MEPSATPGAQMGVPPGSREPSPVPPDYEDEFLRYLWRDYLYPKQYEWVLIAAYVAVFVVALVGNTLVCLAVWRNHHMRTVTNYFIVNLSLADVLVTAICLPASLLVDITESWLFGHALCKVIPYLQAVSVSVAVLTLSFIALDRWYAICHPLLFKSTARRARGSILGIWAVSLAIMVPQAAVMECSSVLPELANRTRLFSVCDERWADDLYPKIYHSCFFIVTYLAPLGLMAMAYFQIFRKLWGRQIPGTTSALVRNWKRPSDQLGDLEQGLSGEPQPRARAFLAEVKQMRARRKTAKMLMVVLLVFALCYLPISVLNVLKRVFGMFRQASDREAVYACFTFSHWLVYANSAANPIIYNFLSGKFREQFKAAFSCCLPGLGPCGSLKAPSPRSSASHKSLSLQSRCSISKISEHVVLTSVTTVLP
The conditions noted are these: CHO, time 120.0 sec.
Description: Agonist activity at human orexin 1 receptor expressed in CHO cells assessed as increase in calcium mobilization incubated for 120 secs by Fluo-4AM dye based fluorescence assay

Assay [3] addresses T2, Orexin/Hypocretin receptor type 1 (Homo sapiens, UniProt O43613).
T2 sequence (O43613 whole entry): T1 sequence (whole entry)
Put plainly: Displacement of [3H]-[…] from human orexin 1 receptor expressed in CHO cells incubated for 2 hrs by whole cell radioligand binding assay. The assay is classed as cell-based.

Assay [4] concerns the target T3, Orexin receptor type 2 (Homo sapiens) (UniProt O43614).
T3 sequence (whole entry): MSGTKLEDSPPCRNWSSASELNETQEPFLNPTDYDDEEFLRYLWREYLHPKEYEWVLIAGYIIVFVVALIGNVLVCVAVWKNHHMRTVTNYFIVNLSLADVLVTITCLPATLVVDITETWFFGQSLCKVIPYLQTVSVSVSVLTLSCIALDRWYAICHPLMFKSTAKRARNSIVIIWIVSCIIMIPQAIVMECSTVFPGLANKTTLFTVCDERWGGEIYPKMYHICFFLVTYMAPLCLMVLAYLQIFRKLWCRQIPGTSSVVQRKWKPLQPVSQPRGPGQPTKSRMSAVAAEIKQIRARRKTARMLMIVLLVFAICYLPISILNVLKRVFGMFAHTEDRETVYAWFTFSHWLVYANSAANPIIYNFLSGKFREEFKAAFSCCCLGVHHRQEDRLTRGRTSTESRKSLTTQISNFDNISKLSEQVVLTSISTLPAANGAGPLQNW
Put plainly: Agonist activity at human orexin 2 receptor expressed in CHO cells assessed as increase in calcium mobilization incubated for 120 secs by Fluo-4AM dye based fluorescence assay. The assay is classed as functional, cell-based. The conditions noted are these: time 120.0 sec. For orientation: Calcium assays in cells follow changes in intracellular calcium, usually with a dye or a luminescent sensor.

The species named for assay [5] is Homo sapiens. Put plainly: Displacement of [3H]-EMPA from human orexin 2 receptor expressed in CHO cells incubated for 2 hrs by whole cell radioligand binding assay relative to control. In kind it is cell-based. The arrangement: concentration or dose not given beside the values. The following applies: dose or concentration not given here.

As for `C[C@H](Sc1nc(-c2ccco2)nc2ccccc12)C(=O)N1CCc2ccccc2C1`, the negative logarithm of the Ki (pKi) in assay [1] turned out to be 5.5. Moreover, the pEC50 result in assay [2] and in assay [4] was “inactive” each time. In addition, the Ki in assay [3] is 8.91 µM.

For `Cc1nc2cc(F)cc(C(=O)NCCOc3ccc4ccccc4c3)c2nc1C`, in assay [1], the pKi came out at 5.83. The inhibition in assay [5] amounted to 61.7%.

In assay [1], `C[C@@H](Oc1ccc2c(c1)oc(=O)c1ccccc12)C(=O)c1ccccc1` returned a negative-log Ki (pKi) of 5.27. In assay [5], this molecule returned an inhibition of 63.7%. Further, the pEC50 entry in assay [2] and in assay [4] was “inactive” in each case. The molecule also had an inhibitory constant (Ki) in assay [3] of 5.37 µM.

On to `Cc1ccccc1CN(C)C(=O)Cc1csc(-c2cccc(F)c2)n1`, for which the pKi in assay [1] was 6.18. The pEC50 result in assay [2] and in assay [4] was “inactive” each time. In assay [3], this molecule had a Ki of 3.24 µM.

The molecule `Cc1ccc(-c2nc(CC(=O)N(C)Cc3c(F)cccc3Cl)cs2)o1` gave a pKi in assay [1] of 5.55. The pEC50 result in assay [2] and in assay [4] was “inactive” throughout. This molecule showed a Ki in assay [3] of 11.7 µM.

As for `Cc1ccc(CSCc2ccc(-c3nc(-c4ccccn4)no3)o2)cc1`, the pKi in assay [1] turned out to be 5.07. This molecule had an inhibition in assay [5] of 79.2%. This molecule also gave a Ki in assay [3] of 15.5 µM. The pEC50 result in assay [4] is “inactive”.

In turn, `Cc1ccc(C(=O)[C@H](C)Oc2cccc(N3C(=O)[C@H]4[C@H](C)C=CC[C@@H]4C3=O)c2)cc1` registered a pKi in assay [1] of 4.97. In assay [5], the inhibition came out at 49.9%. The same molecule had a Ki in assay [3] of 7.76 µM.

For `Cc1ccc(-c2nc(CC(=O)N(C)[C@@H](C)c3ccc(F)cc3)cs2)o1`, the negative logarithm of the Ki (pKi) in assay [1] worked out at 5.53. The pEC50 result in assay [2] and in assay [4] was “inactive” in each case. The affinity in assay [3], expressed as Ki, was 17 µM.

Turning to `Cc1ccc2[nH]c(C)c(CC(=O)N(Cc3cccnc3)C3CC3)c2c1`, the pEC50 result in assay [2] and in assay [4] was “inactive” in each case.

For `O=C(Nc1cccc(/C=C/c2ccccn2)c1)c1occc1COc1ccccc1`, the pKi in assay [1] was 4.98. The molecule also returned an inhibition in assay [5] of 39.9%. In assay [3], the Ki is 7.94 µM.

The molecule `O=C(c1ccc(-c2nc3ccccc3s2)o1)N(Cc1ccco1)Cc1ccco1` returned a pKi in assay [1] of 5.5. Also, the pEC50 result in assay [2] and in assay [4] was “inactive” throughout. In assay [3], this molecule had a Ki of 3.55 µM.

Molecule `Cc1ccc(Oc2ncccc2NC(=O)c2ccc3c(c2)OCCCO3)c2c1CCC2` came in with a pKi in assay [1] of 5.19. This molecule gave an inhibition in assay [5] of 67.1%. This molecule gave a Ki in assay [3] of 5.13 µM.

What is called pKi is −log10 of the Ki, conventionally taken in molar units. As a reminder, the Ki is the dissociation constant of the complex between target and ligand, obtained from inhibition or displacement. Usually inhibition stands for the share of the control response that was lost under treatment.

These data come from ChEMBL document CHEMBL4725416, “Structure-Based Discovery of Novel Ligands for the Orexin 2 Receptor” (J Med Chem, 2020).
